Values quoted from earlier work as cited in patent publication US5122376A, “Calcitonin gene related peptide” (ISF Societa per Azioni, priority 1989, dated 1992).

Conditions: compared with sodium caprate

absorption-enhancing agent for insulin (nasal absorption): weaker than sodium caprate
SMILES: CC1(C)[C@@H](O)CC[C@]2(C)[C@H]3C(=O)C=C4[C@@H]5C[C@@](C)(C(=O)[O-])CC[C@]5(C)CC[C@@]4(C)[C@]3(C)CC[C@@H]12.[Na+] [sodium glycyrrhetinate]
